# Test results published in article PMC9745799, “Polymyxin Stereochemistry and Its Role in Antibacterial Activity and Outer Membrane Disruption” (ACS Infectious Diseases, 2022).
# Where “and” joins values, the source holds several entries; their conditions need not be identical. Equal entries are not always repeated. Positions of bridges follow the written chain, without caps; N, C: chain ends. Non-standard residues stand in square brackets, D forms with d. Residues, ends and D or L forms follow the SMILES beside them. *: point of attachment. dDab = NCC[C@@H](N)C(=O)O; Heptanoyl = CCCCCCC(=O)*
# How the values were obtained:
# Assay type in all cases: cell-based
# [1] = system: polymyxin-sensitive E. coli ATCC 25922; test: microbe, parasite or virus in culture; conditions: E. coli ATCC 25922
# Protocol: (§1) Selected Gram-negative bacterial strains were taken from glycerol stocks and grown overnight on blood agar. A single colony was inoculated in TSB broth at 37 °C until an optical density of 0.5 at 600 nm (OD600) was reached. The bacterial suspension was diluted in freshly prepared CAMHB to 10^6 CFU/mL. Compounds were diluted along the plate, using 25 μL of CAMHB for each dilution. Antibiotic concentrations were prepared separately in a multiwell reservoir, including a control without antibiotic. Of each antibiotic stock, 25 μL was added to three columns to obtain triplicates for every condition. To each 50 μL containing well was then added 50 μL of the 10^6 CFU/mL bacterial suspension, and the plates were sealed with breathable seals. After incubation for 18 h at 37 °C while shaking, the seals were removed and the density of the bacterial suspensions was measured at 600 nm (OD600) using a Tecan Spark plate reader. The OD600 values were transformed to a 2D gradient with the negative control as the minimum and the positive control as the maximum. The FICI was calculated using the following equation: [drawing 1] with MSCant and MSCcomp indicating the optimal synergistic concentration of antibiotic and compound and MICant and MICcomp, the corresponding MICs of the individual compounds. An FICI ≤ 0.5 indicates synergy.[48]
# [2] = system: polymyxin-resistant (mcr-1 positive) E. coli; test: microbe, parasite or virus in culture; conditions: E. coli mcr-1, checkerboard
# Protocol: as §1
# [3] = system: E. coli JW3594 (ΔwaaD); conditions: truncated LPS, CLSI microbroth dilution, CAMHB, 18 h, 37 °C, triplicate
# Protocol: (§2) MICs of compounds were determined following CLSI guidelines using the microbroth dilution method in polypropylene plates. Selected Gram-negative bacterial strains (see Table S2 for strain sources) were taken from glycerol stocks and grown overnight on blood agar. Individual colonies were selected and grown in Tryptic Soy Broth (TSB) to an OD600 of 0.5. Compounds were diluted in Mueller Hinton Broth (MHB) supplemented with Mg^2+ and Ca^2+ at final concentrations of 12 and 20 mg/L, respectively (CAMHB). 50 μL was used for each well, and compounds were assessed in triplicates. Bacterial culture was diluted in CAMHB to 10^6 CFU/mL, yielding 5 × 10^5 CFU/mL upon addition of 50 μL of culture to 50 μL of compound solution. Positive and negative (sterility) controls were present on each plate. Plates were sealed with a semipermeable membrane and incubated for 22 h (A. baumannii) or 18 h (other strains) under shaking at 37 °C.
# [4] = system: A. baumannii ATCC 19606; conditions: A. baumannii ATCC 19606
# Protocol: as §2
# [5] = system: E. coli BW25113; conditions: E. coli BW25113; CLSI microbroth dilution, CAMHB, 18 h, 37 °C, triplicate
# Protocol: as §2
# [6] = system: P. aeruginosa ATCC 27853; conditions: P. aeruginosa ATCC 27853; CLSI microbroth dilution, CAMHB, 18 h, 37 °C, triplicate
# Protocol: as §2
# [7] = system: E. coli ATCC 25922; conditions: E. coli ATCC 25922
# Protocol: as §2
# [8] = system: P. aeruginosa ATCC 10145; conditions: P. aeruginosa ATCC 10145
# Protocol: as §2
# [9] = system: E. coli mcr-1; conditions: CLSI microbroth dilution, CAMHB, 18 h, 37 °C, triplicate
# Protocol: as §2
# [10] = system: P. aeruginosa 2018-007; conditions: P. aeruginosa 2018-007; CLSI microbroth dilution, CAMHB, 18 h, 37 °C, triplicate
# Protocol: as §2
# [11] = system: E. coli JW3596 (ΔwaaC); conditions: truncated LPS, CLSI microbroth dilution, CAMHB, 18 h, 37 °C, triplicate
# Protocol: as §2
# [12] = system: K. pneumoniae ATCC 13883; conditions: K. pneumoniae ATCC 13883
# Protocol: as §2
# [13] = system: P. aeruginosa NRZ03961; conditions: P. aeruginosa NRZ03961; CLSI microbroth dilution, CAMHB, 18 h, 37 °C, triplicate
# Protocol: as §2
# [14] = system: E. coli BW25113 (rough LPS); test: NPN uptake assay (outer membrane disruption); conditions: NPN fluorescence after 1 h at RT, 5 mM HEPES pH 7.2 + 20 mM glucose, triplicates, result in words
# Protocol: (§3) Bacteria were taken from glycerol stocks and grown in TSB overnight. Cultures were diluted either 50 or 100 times in Lysogeny Broth (LB) and grown at 37 °C to an OD600 of 0.5. Test compounds were prepared in HEPES buffer (5 mM, pH 7.2 + 20 mM glucose) and serially diluted (25 μL per well) on 1/2 the area of black 96-well plates with a transparent bottom. N-Phenyl-1-naphthylamine (NPN) was dissolved in acetone (0.5 mM) and diluted to 40 μM in HEPES buffer (5 mM, pH 7.2 + 20 mM glucose). 25 μL of the NPN solution was added to each well. The bacterial suspension was spin down (1000g, 10 min), and the remaining cell pellet was resuspended in half the original volume of HEPES buffer (5 mM, pH 7.2 + 20 mM glucose). 50 μL of bacterial suspension was added to each well. NPN fluorescence was measured after 1 h of incubation at RT with λex 355 ± 20 nm and λem 420 ± 20 nm. The measured fluorescence signal was corrected for NPN fluorescence in the absence of compounds (bacteria in buffer + NPN) and presented as relative fluorescence units (RFUs).
# [15] = system: polymyxin-resistant, mcr-1 positive E. coli; test: NPN uptake assay (outer membrane disruption); conditions: E. coli mcr-1 positive; NPN fluorescence after 1 h at RT, highest concentration tested 32 μg/mL, triplicates; result in words
# Protocol: as §3
# [16] = system: E. coli ATCC 25922 (smooth LPS); test: NPN uptake assay (outer membrane disruption); conditions: NPN fluorescence after 1 h at RT, 5 mM HEPES pH 7.2 + 20 mM glucose, triplicates, result in words
# Protocol: as §3
# [17] = CLSI microbroth dilution, CAMHB, 18 h, 37 °C, triplicate
smiles,measurement,setting,value
CCCCCCC(=O)N[C@H](CCN)C(=O)N[C@@H](C(=O)N[C@H](CCN)C(=O)N[C@@H]1CCNC(=O)[C@@H]([C@H](C)O)NC(=O)[C@@H](CCN)NC(=O)[C@@H](CCN)NC(=O)[C@@H](CC(C)C)NC(=O)[C@H](Cc2ccccc2)NC(=O)[C@@H](CCN)NC1=O)[C@H](C)O [ent-PmxB4] (Heptanoyl-[dDab][dT][dDab][dDab][dDab]F[dL][dDab][dDab][dT]; lactam 4-C),MIC alone,"[1]; checkerboard, substance alone",128 µg/mL
same,MIC in combination,"[1]; compound in combination with rifampicin, optimal synergistic concentration",8 µg/mL
same,MIC alone,[2]; substance alone,128 µg/mL
same,FICI,"[2]; combination with rifampicin, CAMHB, 18 h, 37 °C, OD600, FICI ≤ 0.5 indicates synergy",0.19 and 0.188
same,MIC,[3],128 µg/mL
same,MIC in presence of PMBN,[4]; + PMBN (8 ug/mL),> 128 µg/mL
same,MIC in presence of SPR741,[4]; + SPR741 (8 ug/mL),> 128 µg/mL
same,MIC,"[4]; CLSI microbroth dilution, CAMHB, 22 h, 37 °C, triplicate",>128 µg/mL
same,MIC,[5],>128 µg/mL
same,MIC,[6],>128 µg/mL
same,MIC in presence of PMBN,[7]; + PMBN (8 ug/mL),128 µg/mL
same,MIC in presence of SPR741,[7]; + SPR741 (8 ug/mL),128 µg/mL
same,MIC in presence of PMBN,[8]; + PMBN (8 ug/mL),> 128 µg/mL
same,MIC in presence of SPR741,[8]; + SPR741 (8 ug/mL),> 128 µg/mL
same,MIC,[8]; [17],>128 µg/mL
same,MIC,[9],128 µg/mL
same,MIC,[10],>128 µg/mL
same,MIC,[11],128 µg/mL
same,MIC in presence of PMBN,[12]; + PMBN (8 ug/mL),> 128 µg/mL
same,MIC in presence of SPR741,[12]; + SPR741 (8 ug/mL),> 128 µg/mL
same,MIC,[12]; [17],>128 µg/mL
same,MIC,[13],>128 µg/mL
same,OM disruption (NPN uptake),[14],moderate OM disruption
same,OM disruption (NPN uptake),[15],full NPN uptake albeit at higher concentrations
same,OM disruption (NPN uptake),[16],moderate OM disruption
